Data set [1] concerns the target T1, L68Q cystatin C (Homo sapiens, UniProt P01034, L94Q).
T1 construct: confirmed by genetic screen to express L68Q cystatin C; from tissue; host or cells: HCCAA patients; plaques and aggregated protein observed on biopsy
T1 sequence (P01034 27-146 L94Q): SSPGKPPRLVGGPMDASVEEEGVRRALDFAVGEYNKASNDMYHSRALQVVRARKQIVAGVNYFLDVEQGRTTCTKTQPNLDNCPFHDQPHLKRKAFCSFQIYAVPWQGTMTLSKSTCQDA
Put plainly: Preliminary trial of N-acetylcysteine in HCCAA patients expressing L68Q cystatin C, monitored by biopsy. Type of data set: in vivo. The text has this:
Three persons who had been identified through characteristic HCCAA symptoms confirmed by genetic screen to express L68Q cystatin C agreed to participate in a preliminary trial with a prototype drug to support antioxidant and other effects of GSH. N-acetylcysteine was used as a GSH-support/anti-cystatin-C-polymerization archetypical drug for conceptual proof and support of the hypotheses supporting this invention. […] One patient fully complied with the prescribed protocol. Two patients were only partially compliant. The fully compliant patient presented with a 50% reduction in plaques observed on biopsy.
Treatments are continuing, augmented by confirmatory/advisory biopsies. Biopsy intervals may be approximately weekly, but longer intervals are envisioned as sufficient to monitor effects and dosages and to encourage compliance in testing and treatment maintenance. For example, biopsy intervals may be weekly, biweekly, monthly, bimonthly, quarterly, semi-annual, annual, etc. Biopsy appointments may be used both for treatment/disease monitoring, but also to maintain patient attention and interaction. Medical advisory panels and insurance issues may also be considered in determining the frequency and type(s) of biopsies.

Data set [2] has as its system cellular glutathione. The note with it: dose of about 22-65 mg/kg; cited from earlier work.

Bounds are passed on as bounds.

In the case of `CC(=O)N[C@@H](CS)C(=O)O` [N-acetylcysteine], the disease arrest entry in data set [1] (all three HCCAA patients (one fully compliant, two partially compliant)) is given as “disease arrest”. In addition, in data set [1] (fully compliant patient), the “reduction in plaques observed on biopsy” value is recorded as 50%. For the same compound, the “reduction of aggregated protein previously observed” value in data set [1] (one of the two partially compliant patients) is reported as “significant reduction”.
On to `O=C1N[C@H](C(=O)O)CS1` [OTC, L-2-oxothiazolidine-4-carboxolate], for which, in data set [2], the “change in cellular glutathione shortly after administration” value is “double” and the “duration of effect, waning in plasma post administration” value was at most 8 h.

(Values after US20200215009A1, “Optimized Solution for the Treatment of Alzheimer's, Stroke, Cardiovascular and other Amyloid Related Diseases” (priority 2017, published 2020).)
